A short description of test [1]: viability inhibitors of stage V gametocytes – luminescence, dose response (AID 1117278).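 Note: gametocytes exposed to compound for 24 hours.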 It counts as functional, cell-based.
Test [2] can be described thus: viability loss in human Jurkat cells – cell-based, luminescence, cytotoxicity control for P. falciparum gametocyte viability project, dose response (AID 1117277).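 Note: potency reflects loss of cellular ATP meaning fewer viable cells.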 It counts as functional.
Test [3] in a line: HPDE-C7 pancreatic duct cell viability loss – fluorescence, HTS (AID 430). Type of test: functional, cell-based. The conditions noted are these: Homo sapiens.
A short description of test [4]: microbe, parasite or virus in culture. The conditions noted are these: Mycobacterium tuberculosis. It counts as functional.
Test [5] in a line: viability loss of HPDE-C7K cells – cell-based, fluorescence, HTS, primary screen (AID 431). Type of test: functional. The note with it: Homo sapiens.
Test [6] concerns the target Mitogen-activated protein kinase 10 (Homo sapiens, UniProt P53779). Description: Dose response biochemical screening assay for inhibitors of c-Jun N-Terminal Kinase 3 (JNK3). [Related pubchem assays: 746 ].
The next test relates to H9c2. Put plainly: cells. It counts as functional, cell-based. The note with it: Rattus norvegicus, H9c2, Myocardium.
A short description of test [7]: general mammalian cell viability loss – inhibitor set, cherry-pick, set 2, cytotoxicity control for miR-122 modulator project, dose response (AID 720697). It counts as functional, cell-based.
The target of test [8] is T1, Histone-lysine N-methyltransferase NSD2 (Homo sapiens, UniProt O96028).
T1 sequence (O96028 whole entry): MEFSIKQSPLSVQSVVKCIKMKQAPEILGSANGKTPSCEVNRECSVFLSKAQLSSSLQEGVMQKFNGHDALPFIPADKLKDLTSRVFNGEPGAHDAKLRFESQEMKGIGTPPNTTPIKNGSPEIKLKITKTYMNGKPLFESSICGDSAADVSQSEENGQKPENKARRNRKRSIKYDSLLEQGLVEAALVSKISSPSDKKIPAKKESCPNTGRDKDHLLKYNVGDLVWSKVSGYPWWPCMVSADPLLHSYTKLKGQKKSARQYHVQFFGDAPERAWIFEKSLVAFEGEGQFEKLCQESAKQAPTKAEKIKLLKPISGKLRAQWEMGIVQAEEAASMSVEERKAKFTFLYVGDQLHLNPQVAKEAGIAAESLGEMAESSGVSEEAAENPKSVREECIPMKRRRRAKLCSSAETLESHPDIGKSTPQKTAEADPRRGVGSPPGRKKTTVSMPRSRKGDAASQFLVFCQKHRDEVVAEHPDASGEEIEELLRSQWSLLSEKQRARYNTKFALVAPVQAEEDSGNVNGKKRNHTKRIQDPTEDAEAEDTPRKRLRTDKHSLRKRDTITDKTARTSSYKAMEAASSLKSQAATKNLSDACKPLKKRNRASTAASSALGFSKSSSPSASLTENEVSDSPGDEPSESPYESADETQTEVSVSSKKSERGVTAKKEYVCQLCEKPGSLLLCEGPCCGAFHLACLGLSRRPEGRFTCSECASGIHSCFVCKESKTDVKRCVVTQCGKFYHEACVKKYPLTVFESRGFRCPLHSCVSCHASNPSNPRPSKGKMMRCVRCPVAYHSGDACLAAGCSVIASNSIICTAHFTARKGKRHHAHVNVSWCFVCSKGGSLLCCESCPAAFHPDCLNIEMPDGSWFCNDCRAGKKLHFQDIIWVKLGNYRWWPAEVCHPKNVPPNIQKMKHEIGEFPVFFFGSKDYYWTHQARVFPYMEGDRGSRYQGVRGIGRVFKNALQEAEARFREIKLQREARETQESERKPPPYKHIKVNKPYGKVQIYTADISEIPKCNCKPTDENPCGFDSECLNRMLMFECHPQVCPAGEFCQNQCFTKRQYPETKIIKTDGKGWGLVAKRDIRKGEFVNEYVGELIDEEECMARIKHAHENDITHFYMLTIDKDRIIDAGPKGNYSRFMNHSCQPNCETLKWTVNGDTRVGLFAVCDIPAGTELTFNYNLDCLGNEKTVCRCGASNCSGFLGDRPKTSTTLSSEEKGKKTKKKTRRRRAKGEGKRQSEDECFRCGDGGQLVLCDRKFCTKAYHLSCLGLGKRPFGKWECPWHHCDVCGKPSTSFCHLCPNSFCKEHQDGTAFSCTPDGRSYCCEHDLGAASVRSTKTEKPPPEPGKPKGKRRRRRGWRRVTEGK
Type of test: biochemical.

Test [9] is described as follows: Luminescence Cell-Based Dose Retest to Confirm Inhibitors of Cancer Stem Cells. [Related pubchem assays (depositor defined):AID2717, AID2721]. It counts as functional. The conditions noted are these: Homo sapiens.
A further test has as its target T2, Protein skinhead-1 (Caenorhabditis elegans, UniProt P34707).
T2 sequence (P34707 whole entry): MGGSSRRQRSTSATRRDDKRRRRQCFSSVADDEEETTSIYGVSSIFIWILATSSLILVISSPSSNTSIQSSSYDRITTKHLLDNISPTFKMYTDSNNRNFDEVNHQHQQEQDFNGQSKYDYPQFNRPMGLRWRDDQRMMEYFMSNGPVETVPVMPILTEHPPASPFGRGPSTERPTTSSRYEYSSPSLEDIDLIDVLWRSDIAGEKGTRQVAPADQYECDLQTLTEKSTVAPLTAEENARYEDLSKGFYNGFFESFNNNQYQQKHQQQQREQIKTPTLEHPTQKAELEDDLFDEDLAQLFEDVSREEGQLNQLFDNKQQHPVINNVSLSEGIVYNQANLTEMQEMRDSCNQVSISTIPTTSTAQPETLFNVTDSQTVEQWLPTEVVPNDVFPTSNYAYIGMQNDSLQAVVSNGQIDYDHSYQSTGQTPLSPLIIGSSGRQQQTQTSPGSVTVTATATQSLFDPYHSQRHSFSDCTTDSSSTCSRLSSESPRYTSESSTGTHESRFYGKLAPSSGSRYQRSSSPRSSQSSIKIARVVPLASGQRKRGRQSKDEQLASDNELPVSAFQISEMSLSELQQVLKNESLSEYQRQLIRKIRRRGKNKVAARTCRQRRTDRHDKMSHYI
Type of test: functional.

Test [10] is described as follows: NIH3T3 cell viability loss – ATP luminescence, mouse fibroblasts, counter-screen, dose response (AID 2010).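 Note: cells exposed to compound for about 90 hours before reading.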 It counts as functional, cell-based. For orientation: A counterscreen serves to expose hits that act by an unwanted route or on another target.
The nature of test [11]: Trypanosoma cruzi growth suppression in host cells – NIH3T3 host cells, beta-gal luminescence, confirmation (AID 2044).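 Note: intracellular parasites grown in NIH/3T3 mouse fibroblasts as host cells; luminescent beta-galactosidase reporter signal from transgenic T. cruzi replicating inside host cells; inhibitors lower the luminescence signal.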 Type of test: functional, cell-based.
The nature of test [12]: Dd2 malaria parasite growth inhibition potency – SYBR Green, dry powder samples, dose response (AID 1159566).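 Note: potency for growth inhibition with lower SYBR green DNA signal.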 It counts as functional, cell-based.
Test [13] can be described thus: growth inhibition of yeast DHODH-expressing 3D7 parasites – SYBR Green, dry powder samples, dose response (AID 1159570).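 Note: parasite growth measured after 72 hours of compound exposure.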 Type of test: functional, cell-based.
Test [14] can be described thus: growth inhibition of PfATP4-mutant resistant parasites – NITD609-resistant line, SYBR Green, dry powder, dose response (AID 1159571).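 Note: parasites synchronized at ring stage by sorbitol before testing.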 It counts as functional, cell-based.
Test [15] can be described thus: P. falciparum Dd2 growth inhibitors, dose response, SYBR Green, cherry-picked samples (AID 1159567). It counts as functional, cell-based.
For test [16], the target named is Glyceraldehyde-3-phosphate dehydrogenase (Homo sapiens, UniProt P04406).
Glyceraldehyde-3-phosphate dehydrogenase, sequence (P04406 whole entry): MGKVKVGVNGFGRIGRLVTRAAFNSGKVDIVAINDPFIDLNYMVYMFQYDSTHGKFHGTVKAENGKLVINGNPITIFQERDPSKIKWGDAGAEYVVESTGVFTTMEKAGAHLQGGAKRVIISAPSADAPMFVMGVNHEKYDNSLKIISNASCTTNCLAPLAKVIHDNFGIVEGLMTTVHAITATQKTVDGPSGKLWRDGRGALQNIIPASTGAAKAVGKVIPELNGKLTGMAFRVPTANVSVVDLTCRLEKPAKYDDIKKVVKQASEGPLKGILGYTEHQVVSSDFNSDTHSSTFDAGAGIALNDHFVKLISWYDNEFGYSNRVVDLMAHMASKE
The test system of a further test is HT-1080. Put plainly: HT1080 cell viability loss – fluorescence readout (AID 620). It counts as functional, cell-based. The conditions noted are these: Homo sapiens.
Test [17] has as its target Luciferin 4-monooxygenase (Photinus pyralis, UniProt P08659). Put plainly: Counter Screen for Luciferase-based Assay Positives. [Related pubchem assays: 620, 618, 411 ].
In test [18] the target is Peroxisome proliferator-activated receptor gamma/Nuclear receptor coactivator 2 (Homo sapiens, UniProt P37231). It counts as functional.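 Note: agonist potency for raising coactivator recruitment to the receptor.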
Peroxisome proliferator-activated receptor gamma/Nuclear receptor coactivator 2, sequence (P37231 whole entry): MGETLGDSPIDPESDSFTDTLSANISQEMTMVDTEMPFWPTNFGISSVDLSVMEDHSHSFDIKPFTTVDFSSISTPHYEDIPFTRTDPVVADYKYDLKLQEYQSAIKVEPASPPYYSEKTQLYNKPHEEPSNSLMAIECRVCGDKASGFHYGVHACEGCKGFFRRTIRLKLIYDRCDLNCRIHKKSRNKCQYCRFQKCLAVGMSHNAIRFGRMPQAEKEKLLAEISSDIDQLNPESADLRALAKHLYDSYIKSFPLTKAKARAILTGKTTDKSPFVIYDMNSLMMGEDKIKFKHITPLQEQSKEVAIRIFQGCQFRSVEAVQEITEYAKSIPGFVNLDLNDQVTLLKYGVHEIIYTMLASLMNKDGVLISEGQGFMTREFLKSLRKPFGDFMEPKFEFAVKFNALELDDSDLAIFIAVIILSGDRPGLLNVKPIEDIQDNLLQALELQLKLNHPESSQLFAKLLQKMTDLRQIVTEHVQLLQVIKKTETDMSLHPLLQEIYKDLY
Peroxisome proliferator-activated receptor gamma/Nuclear receptor coactivator 2, sequence (Q15596 whole entry, further chain): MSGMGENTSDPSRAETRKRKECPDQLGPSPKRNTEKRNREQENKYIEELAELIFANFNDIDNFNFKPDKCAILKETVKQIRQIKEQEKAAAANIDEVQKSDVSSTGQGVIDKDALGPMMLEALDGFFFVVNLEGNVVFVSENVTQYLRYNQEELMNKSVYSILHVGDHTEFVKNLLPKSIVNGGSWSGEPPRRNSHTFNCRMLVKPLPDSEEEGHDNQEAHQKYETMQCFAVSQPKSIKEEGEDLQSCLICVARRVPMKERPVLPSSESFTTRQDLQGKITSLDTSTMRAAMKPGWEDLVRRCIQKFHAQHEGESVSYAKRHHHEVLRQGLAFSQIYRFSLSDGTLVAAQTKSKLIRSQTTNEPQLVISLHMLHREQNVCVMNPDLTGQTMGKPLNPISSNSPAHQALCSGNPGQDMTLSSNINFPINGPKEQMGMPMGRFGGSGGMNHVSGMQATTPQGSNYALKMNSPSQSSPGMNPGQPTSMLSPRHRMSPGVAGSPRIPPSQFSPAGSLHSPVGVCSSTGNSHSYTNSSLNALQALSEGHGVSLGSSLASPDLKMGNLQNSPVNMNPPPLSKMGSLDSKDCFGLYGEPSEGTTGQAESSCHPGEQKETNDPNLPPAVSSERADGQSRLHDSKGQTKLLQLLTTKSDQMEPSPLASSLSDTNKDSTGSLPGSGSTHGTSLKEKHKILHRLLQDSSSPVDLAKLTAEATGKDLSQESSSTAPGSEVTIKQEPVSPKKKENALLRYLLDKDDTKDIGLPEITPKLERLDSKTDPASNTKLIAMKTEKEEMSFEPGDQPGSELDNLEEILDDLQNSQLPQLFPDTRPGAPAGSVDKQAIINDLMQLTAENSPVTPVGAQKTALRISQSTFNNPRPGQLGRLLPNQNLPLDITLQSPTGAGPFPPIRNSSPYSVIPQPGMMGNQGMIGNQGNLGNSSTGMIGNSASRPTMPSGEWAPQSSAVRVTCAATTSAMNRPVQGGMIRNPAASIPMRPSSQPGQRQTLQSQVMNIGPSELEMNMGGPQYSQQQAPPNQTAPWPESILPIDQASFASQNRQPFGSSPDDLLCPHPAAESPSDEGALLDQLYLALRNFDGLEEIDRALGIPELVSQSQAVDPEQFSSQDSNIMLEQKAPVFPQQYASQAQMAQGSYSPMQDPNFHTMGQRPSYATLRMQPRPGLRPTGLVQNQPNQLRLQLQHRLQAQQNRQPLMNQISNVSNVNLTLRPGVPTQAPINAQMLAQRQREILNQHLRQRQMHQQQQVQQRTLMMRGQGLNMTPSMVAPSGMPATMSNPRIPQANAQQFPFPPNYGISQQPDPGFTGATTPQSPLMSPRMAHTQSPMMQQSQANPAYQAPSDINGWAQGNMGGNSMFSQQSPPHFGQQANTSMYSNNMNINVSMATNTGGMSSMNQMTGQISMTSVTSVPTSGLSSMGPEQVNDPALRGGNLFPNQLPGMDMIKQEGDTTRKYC
For test [19], the target named is Peroxisome proliferator-activated receptor gamma/Nuclear receptor coactivator 3 (Homo sapiens, UniProt P37231). Type of test: functional.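 Note: agonist potency for raising coactivator recruitment to the receptor.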
Test [20] deals with Peroxisome proliferator-activated receptor gamma/Nuclear receptor coactivator 1 (Homo sapiens, UniProt P37231). It counts as functional.
Peroxisome proliferator-activated receptor gamma/Nuclear receptor coactivator 1, sequence (P37231 whole entry): as the sequence (P37231 whole entry) above
Peroxisome proliferator-activated receptor gamma/Nuclear receptor coactivator 1, sequence (Q15788 whole entry, further chain): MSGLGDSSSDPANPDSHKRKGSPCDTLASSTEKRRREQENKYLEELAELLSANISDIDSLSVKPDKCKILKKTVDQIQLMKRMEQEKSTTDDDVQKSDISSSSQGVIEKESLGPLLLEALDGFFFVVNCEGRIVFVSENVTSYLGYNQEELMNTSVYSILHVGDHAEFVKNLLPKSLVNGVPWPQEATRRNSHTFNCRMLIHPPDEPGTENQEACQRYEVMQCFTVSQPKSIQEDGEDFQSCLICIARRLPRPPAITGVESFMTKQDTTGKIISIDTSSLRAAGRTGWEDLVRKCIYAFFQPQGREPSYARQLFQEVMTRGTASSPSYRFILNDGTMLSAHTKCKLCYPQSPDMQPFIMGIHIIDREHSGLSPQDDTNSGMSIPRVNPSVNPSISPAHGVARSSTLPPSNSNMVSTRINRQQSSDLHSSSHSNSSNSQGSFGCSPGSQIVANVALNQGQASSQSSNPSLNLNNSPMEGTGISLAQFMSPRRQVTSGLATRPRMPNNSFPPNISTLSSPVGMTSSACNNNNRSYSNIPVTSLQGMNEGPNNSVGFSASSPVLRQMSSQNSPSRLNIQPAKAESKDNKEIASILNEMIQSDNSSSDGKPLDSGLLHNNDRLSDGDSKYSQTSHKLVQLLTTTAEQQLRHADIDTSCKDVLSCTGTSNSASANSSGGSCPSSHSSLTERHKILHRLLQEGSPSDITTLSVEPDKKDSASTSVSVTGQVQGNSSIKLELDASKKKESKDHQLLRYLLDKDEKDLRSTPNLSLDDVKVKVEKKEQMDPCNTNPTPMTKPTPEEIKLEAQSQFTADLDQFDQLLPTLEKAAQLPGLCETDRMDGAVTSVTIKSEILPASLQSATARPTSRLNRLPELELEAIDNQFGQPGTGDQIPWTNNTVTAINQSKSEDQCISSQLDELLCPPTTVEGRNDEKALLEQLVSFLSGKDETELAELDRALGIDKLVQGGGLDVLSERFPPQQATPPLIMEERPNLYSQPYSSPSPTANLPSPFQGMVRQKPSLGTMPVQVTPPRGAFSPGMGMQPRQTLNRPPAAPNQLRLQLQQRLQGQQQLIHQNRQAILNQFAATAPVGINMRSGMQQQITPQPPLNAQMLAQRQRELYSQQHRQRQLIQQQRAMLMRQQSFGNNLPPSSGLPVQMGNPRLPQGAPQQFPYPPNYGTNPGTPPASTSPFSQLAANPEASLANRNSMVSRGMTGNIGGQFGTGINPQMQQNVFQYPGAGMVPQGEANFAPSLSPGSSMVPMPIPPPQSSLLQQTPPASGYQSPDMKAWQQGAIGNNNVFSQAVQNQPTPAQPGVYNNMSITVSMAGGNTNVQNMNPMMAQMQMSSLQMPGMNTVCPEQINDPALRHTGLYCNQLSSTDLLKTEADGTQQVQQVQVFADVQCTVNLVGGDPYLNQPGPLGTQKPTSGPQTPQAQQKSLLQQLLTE

The source made the active and inactive calls.

The term IC50 denotes the concentration that inhibits the measured activity by half. The term EC50 denotes the concentration that produces a half-maximal response. The AC50 is the concentration at which the activity in the assay is half-maximal.

Mitogen-activated protein kinase 10, sequence (P53779 whole entry): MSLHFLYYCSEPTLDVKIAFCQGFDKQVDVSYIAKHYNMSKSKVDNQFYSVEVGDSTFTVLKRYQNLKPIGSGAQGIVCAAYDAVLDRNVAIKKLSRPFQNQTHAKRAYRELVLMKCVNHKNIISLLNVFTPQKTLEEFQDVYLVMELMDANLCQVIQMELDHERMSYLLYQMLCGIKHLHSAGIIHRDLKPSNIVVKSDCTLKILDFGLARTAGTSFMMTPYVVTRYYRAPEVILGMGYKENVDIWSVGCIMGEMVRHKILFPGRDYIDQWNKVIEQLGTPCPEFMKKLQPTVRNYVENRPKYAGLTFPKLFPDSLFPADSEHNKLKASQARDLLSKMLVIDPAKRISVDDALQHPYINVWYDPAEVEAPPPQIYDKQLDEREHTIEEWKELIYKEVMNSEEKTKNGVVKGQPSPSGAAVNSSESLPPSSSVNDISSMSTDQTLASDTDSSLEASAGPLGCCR

For the compound `O=C(CCCn1c(=O)[nH]c2cc(Cl)ccc2c1=O)NCCCN1CCCC1`, the IC50 in test [1] was > 109 µM (inactive); in test [2], > 83.3 µM (inactive).

Regarding `COc1cccc(N2CCN(c3[nH]cnc4c5ccccc5nc3-4)CC2C)c1` (configuration not stated), the EC50 was 3.33 µM (active) in test [3] and 3.01 µM (active) in test [5]. The CC50 in [4] is 7.28 µM (active).

In the case of `COc1ccc(OC)c(Nc2nc(N)nc(-c3cc4ccccc4o3)n2)c1`, the IC50 is 47.8 µM (not active) in [6] and > 79 µM (inactive) in the test on H9c2.

Regarding `CCn1c(C(C)NC(C)=O)nc2ccccc21` (configuration not stated), in test [6], the IC50 was > 93.1 µM (not active).

Consider `O=C(Cc1c[nH]c2ccccc12)Nc1nccs1`, for which the IC50 in test [1] was > 109 µM (inactive); in [2] it was > 83.3 µM (inactive).

Turning to `C/C=C/c1ccc([C@H]2[C@@H](CO)N[C@@H]2CN(CC)C(=O)CN2CCOCC2)cc1`, the AC50 in [7] is 47.6 µM (active).

Take `CNCCCOc1cccc(OC(C)C)c1`: the AC50 in [8] is 17.3 µM (active).

On to `CC(C)(C)c1nc(N2CCN(C(=O)c3ccco3)CC2)c2nnn(Cc3ccccc3Cl)c2n1`, for which the EC50 was 4.47 µM (active) in test [3] and 5.38 µM (active) in test [5]. In test [9], the AC50 was 3.44 µM (active).

In the case of `N=c1c2c(-c3ccccc3)c(-c3ccccc3)n(Cc3ccccc3)c2ncn1CCCO`, the IC50 at Protein skinhead-1 was > 100 µM (inactive). In addition, the values for the EC50 in [10] and in test [11] were > 60 µM (inconclusive) and 1.26 µM (active), respectively. The AC50 in test [7] was 7.08 µM (active).

Consider `COc1ccc(-c2c3c([nH]c(=S)c2C#N)CCC3)cc1`, for which the IC50 in test [6] is 17.6 µM (not active).

For `C[C@H](CO)N1C[C@H](C)[C@H](CN(C)S(=O)(=O)c2ccc(C#N)cc2)OCc2ccccc2-c2c(n(C)c3ccccc23)C1=O`, the AC50 in test [12] was 0.314 µM (active); in test [13], 0.563 µM (active); in [14] it was 0.41 µM (active); in test [15], 1.25 µM (active).

`COCCCNC(=O)c1c(N)n(/N=C/c2cccs2)c2nc3ccccc3nc12`: the EC50 in test [3] was 9.78 µM (active); in test [5], > 20 µM (not active).

Turning to `Cc1ccc(NC(=O)C2CCN(c3nc(C)cc(C)n3)CC2)cc1`, the values for the IC50 in test [1] and in test [2] were > 109 µM (inactive) and > 83.3 µM (inactive), respectively.

Take `CCCn1c(=S)[nH]c2cc(C(=O)N3CCc4ccccc4C3)ccc2c1=O`: the IC50 in test [1] is > 109 µM (inactive); in test [2] it was > 83.3 µM (inactive).

Take `COc1ccc(C#Cc2ccc3c(c2)O[C@@H](CN(C)C(=O)Nc2cccc(OC)c2)[C@H](C)CN([C@H](C)CO)S3(=O)=O)cc1`: the AC50 in test [12] was 0.662 µM (active); in test [13], 0.799 µM (active); in [14], 0.986 µM (active); in test [15], 1.5 µM (active).

Regarding `COc1ccc(-c2cc3nnc(-c4ccccc4)nc3s2)cc1`, the IC50 in [16] is > 100 µM (not active). Besides, the EC50 with HT-1080 was > 50 µM (not active); in test [17], 0.27 µM (active).

With `Cc1ccccc1-n1c(S)nnc1-c1ccco1`, the EC50 in test [18], in test [19] and in test [20] was > 79.4 µM (not active) each time.

Regarding `CN(C)/C=N/C(=O)/C(C#N)=C1\CCc2ccccc2N1`, the IC50 in test [6] is > 93.1 µM (not active).

`CCN(CC)CCCNC(=O)c1ccc2c(SCC(=O)O)c3c(nc2c1)CCC3`: the EC50 in test [18], in test [19] and in [20] was > 79.4 µM (not active) throughout.

For `NC(N)=Nc1nc(CSCCC(N)=NS(N)(=O)=O)cs1` [FAMOTIDINE], the EC50 in test [18], in [19] and in [20] was > 79.4 µM (not active) throughout.

For the origin of these results see ChEMBL document CHEMBL1201862, “PubChem BioAssay data set” (2004).
